Experimental findings from patent publication US20100255070A1, “COMPOSITIONS AND METHODS FOR PREVENTING, MINIMIZING AND HEALING SKIN IRRITATION AND TRAUMA” (PRELIEF INC., priority 2007, published 2010) are described below.

The nature of the data set: Water solubility of the components of the preferred aqueous composition. Type of data set: physicochemical. Particulars: component of the preferred aqueous composition. From the text: The film-forming component is designed to be insoluble so that it will form a film on the skin.

As to `OCC(O)CO` [Glycerin], the “Water Solubility” value was “S”.
